Assay results from paper PMC8805037, “Ready access to 7,8-dihydroindolo[2,3-d][1]benzazepine-6(5H)-one scaffold and analogues via early-stage Fischer ring-closure reaction” (Beilstein Journal of Organic Chemistry, 2022).
pIC50: −log10 of the molar value.

Biological target: proto-oncogene tyrosine-protein kinase Src (Homo sapiens, UniProt P12931)
Test: IC50 reported as preliminary result; assay not described in the text shown
Assay type: biochemical

proto-oncogene tyrosine-protein kinase Src, sequence (P12931 2-536): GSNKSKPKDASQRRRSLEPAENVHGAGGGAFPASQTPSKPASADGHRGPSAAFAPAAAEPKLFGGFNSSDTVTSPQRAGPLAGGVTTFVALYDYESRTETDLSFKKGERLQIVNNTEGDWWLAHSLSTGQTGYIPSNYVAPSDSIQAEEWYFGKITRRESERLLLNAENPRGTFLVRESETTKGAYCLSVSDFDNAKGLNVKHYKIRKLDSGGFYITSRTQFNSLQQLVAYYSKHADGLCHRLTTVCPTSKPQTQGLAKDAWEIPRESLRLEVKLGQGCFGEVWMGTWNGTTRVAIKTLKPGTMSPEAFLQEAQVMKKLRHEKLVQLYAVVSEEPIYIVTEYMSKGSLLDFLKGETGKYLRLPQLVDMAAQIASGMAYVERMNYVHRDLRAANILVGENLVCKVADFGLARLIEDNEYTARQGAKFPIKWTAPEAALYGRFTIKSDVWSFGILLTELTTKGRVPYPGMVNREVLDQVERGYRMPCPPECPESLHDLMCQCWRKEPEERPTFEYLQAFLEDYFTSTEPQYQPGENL

pIC50: 6.59
Compound: O=C1Cc2[nH]c3ccccc3c2-c2ccccc2N1 [C, 7,8-dihydroindolo[2,3-d][1]benzazepin-6(5H)-one]
